# Test results: patent publication US12594267B2, “Capsid inhibitors for the treatment of HIV” (Gilead Sciences, Inc., priority 2018, dated 2026)
# Assay: PK after subcutaneous administration of solutions in dogs
# Format: in vivo, Beagle dog
# Details: for Plasma concentration: SC 12 mg/kg, 300 mg/mL (22.6% water/50% PEG 300/1.1% NaOH/26.3% Formula (Ia))
# Experimental: Formulations containing the compound of Formula (Ia) were prepared as aqueous solutions or oral formulations and administered subcutaneously to rats, dogs, cynomolgus monkey, and/or rhesus monkey.
# A solution of the compound of Formula (Ia) in 10% ethanol, 13% water, and 77% PEG 200 (400 mg/mL) was prepared. The solution was administered subcutaneously to dogs at a dose of 12 mg/kg and rats at a dose of 50 mg/kg and the pharmacokinetic (PK) profile was determined. […] In both species, plasma concentrations of the compound of Formula (Ia) were maintained above the target trough concentration of 20 nM (corresponding to an IQ of 5) for at least 84 days (12 weeks).
# A solution of the compound of Formula (Ia) in 15% water and 85.0 PEG 300 (400 mg/mL) was prepared. The solution was administered subcutaneously to male beagle dogs at a dose level of 12 mg/kg and dose volume of […] and the pharmacokinetic (PK) profile was determined.
# A solution of the compound of Formula (a) sodium salt in water and 300 (300 mg/mL) was prepared that contained 22.6% water/50% PEG 300/1.1% NaOH/26.3% Formula (Ia). The solution was administered subcutaneously to male beagle dogs at a dose level of 12 mg/kg and dose volume of […] and the pharmacokinetic (PK) profile was determined.
# A 300 mg/ml solution of a compound of Formula (Ia) having 9.8 w/w % water, 65.0 w/w % PEG 300, and 25.2 w/w % of the compound of Formula (Ia) was prepared. The solution was administered subcutaneously to rats at a dose of 50 mg/kg and to dogs at a dose of 12 mg/kg and the pharmacokinetic (PK) profile was determined. […] In the rat, plasma concentrations of the compound of Formula (Ia) were maintained above the target trough concentration of 20 nM for at least 168 days (24 weeks). In the dog, plasma concentrations of the compound of Formula (Ia) were maintained above the target trough concentration of 20 nM for at least 84 days (12 weeks).
# (§1) A 150 mg/ml solution of a compound of Formula (Ia) having 27.92 w/w % water, 58.04 w/w % PEG 300, 13.47 w/w % of a compound of Formula (Ia), and 1.1 w/w % NaOH was prepared. The solution was administered subcutaneously to rats at a dose of 50 mg/kg and to dogs at a dose of 12 mg/kg and the pharmacokinetic (PK) profile was determined. […] In the rat, plasma concentrations of the compound of Formula (Ia) were maintained above the target trough concentration of 20 nM for at least 126 days (18 weeks). In the dog, plasma concentrations of the compound of Formula (Ia) were maintained above the target trough concentration of 20 nM for at least 56 days (8 weeks).
# as §1, with “300” for “150”, “23.2” for “27.92”, “50.0” for “58.04”, “25.7” for “13.47”
# A 50 mg/ml solution of a compound of Formula (Ia) having 30.07 w/w % water, 64.40 w/w % PEG 300, 4.68 w/w % of a sodium salt of the compound of Formula (Ia), and 0.85 w/w % poloxamer 188 was prepared. The solution was administered subcutaneously to rats at a dose of 50 mg/kg and to dogs at a dose of 6 mg/kg and the pharmacokinetic (PK) profile was determined. […] In the rat, plasma concentrations of the compound of Formula (Ia) were maintained above the target trough concentration of 20 nM for at least 28 days (4 weeks). In the dog, plasma concentrations of the compound of Formula (Ia) were maintained above the target trough concentration of 20 nM for at least 14 days (2 weeks). […]
# [1] = male beagle dog, single SC 12 mg/kg, 300 mg/mL, 50, 22.6, 1.1, 26.3 w/w % PEG300:Water:NaOH:Formula (Ia), mean ± SD, n=3
structure (smiles),measurement,setting,value
CC(C)(C#Cc1ccc(-c2ccc(Cl)c3c([N-]S(C)(=O)=O)nn(CC(F)(F)F)c23)c([C@H](Cc2cc(F)cc(F)c2)NC(=O)Cn2nc(C(F)(F)F)c3c2C(F)(F)[C@@H]2C[C@H]32)n1)S(C)(=O)=O.[Na+] [Formula (Ia) sodium salt],Plasma concentration,"dog #1, 0 h",BLQ
same,Plasma concentration,"dog #1, 1.0 h",14.0 nM
same,Plasma concentration,"dog #1, 3.0 h",26.0 nM
same,Plasma concentration,"dog #1, 8.0 h",56.3 nM
same,Plasma concentration,"dog #1, 24 h",57.1 nM
same,Plasma concentration,"dog #1, 48 h",71.1 nM
same,Plasma concentration,"dog #1, 72 h",51.5 nM
same,Plasma concentration,"dog #1, 96 h",46.4 nM
same,Plasma concentration,"dog #1, 168 h",47.7 nM
same,Plasma concentration,"dog #2, 0 h",BLQ
same,Plasma concentration,"dog #2, 1.0 h",7.2 nM
same,Plasma concentration,"dog #2, 3.0 h",17.0 nM
same,Plasma concentration,"dog #2, 8.0 h",25.8 nM
same,Plasma concentration,"dog #2, 24 h",25.4 nM
same,Plasma concentration,"dog #2, 48 h",29.0 nM
same,Plasma concentration,"dog #2, 72 h",16.2 nM
same,Plasma concentration,"dog #2, 96 h",14.0 nM
same,Plasma concentration,"dog #2, 168 h",13.6 nM
same,Plasma concentration,"dog #3, 0 h",BLQ
same,Plasma concentration,"dog #3, 1.0 h",8.6 nM
same,Plasma concentration,"dog #3, 3.0 h",16.8 nM
same,Plasma concentration,"dog #3, 8.0 h",32.1 nM
same,Plasma concentration,"dog #3, 24 h",54.5 nM
same,Plasma concentration,"dog #3, 48 h",57.8 nM
same,Plasma concentration,"dog #3, 72 h",58.0 nM
same,Plasma concentration,"dog #3, 96 h",59.2 nM
same,Plasma concentration,"dog #3, 168 h",43.1 nM
same,Plasma concentration,"dog mean, n=3, 1.0 h",10.0 nM
same,Plasma concentration,"dog mean, n=3, 3.0 h",19.9 nM
same,Plasma concentration,"dog mean, n=3, 8.0 h",38.1 nM
same,Plasma concentration,"dog mean, n=3, 24 h",45.7 nM
same,Plasma concentration,"dog mean, n=3, 48 h",52.6 nM
same,Plasma concentration,"dog mean, n=3, 72 h",41.9 nM
same,Plasma concentration,"dog mean, n=3, 96 h",39.9 nM
same,Plasma concentration,"dog mean, n=3, 168 h",34.8 nM
same,AUC0-24h,[1],0.85 ± 0.31 µM·h
same,AUC0-48h,[1],2.03 ± 0.76 µM·h
same,AUC0-72h,[1],3.16 ± 1.27 µM·h
same,AUC0-168h,[1],6.83 ± 3.24 µM·h
